Test [1] addresses T1, Presenilin-associated rhomboid-like protein, mitochondrial (Homo sapiens, UniProt Q9H300).
T1 sequence (Q9H300 whole entry): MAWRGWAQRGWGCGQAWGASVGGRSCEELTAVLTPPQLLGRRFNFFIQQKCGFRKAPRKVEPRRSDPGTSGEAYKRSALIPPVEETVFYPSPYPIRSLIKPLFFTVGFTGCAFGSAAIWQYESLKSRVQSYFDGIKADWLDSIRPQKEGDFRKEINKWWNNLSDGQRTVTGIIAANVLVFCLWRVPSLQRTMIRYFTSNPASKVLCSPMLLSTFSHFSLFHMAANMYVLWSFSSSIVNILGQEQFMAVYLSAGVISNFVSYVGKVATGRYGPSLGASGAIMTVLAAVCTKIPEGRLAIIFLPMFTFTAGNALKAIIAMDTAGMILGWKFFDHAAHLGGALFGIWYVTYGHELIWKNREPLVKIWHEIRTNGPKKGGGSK
Put plainly: Inhibition of PARL (unknown origin) using Ac-RRRAVFKLA-aminomethyl coumarin as substrate preincubated for 30 mins followed by substrate addition and measured after 20 mins by plate reader assay.

Test [2] can be described thus: Inhibition of recombinant human RHBDL2 using Ac-PVAKA-7-amino-4-methylcoumarin-3-(N-octyl)-acetamide as substrate preincubated for 30 mins followed by substrate addition and measured after 20 mins by plate reader assay.
The nature of test [3]: (§1) Inhibition of FLAG-tagged PARL (unknown origin) overexpressed in HEK293-T-REx cells assessed as reduction in substrate cleavage using PGAM5-Myc as substrate incubated for overnight by densitometry assay. The format is cell-based, Homo sapiens.
The next test deals with HEK293-T-REx. The description is as §1. The note with it: Homo sapiens. The format is cell-based.

pEC50, pIC50: −log10 of the molar value. Activity calls are given as the source filed them. No cut-off for these calls is given here.

For the molecule `CCC1(CC)C(=O)N(c2ccc(CN3CCN(c4ccc(Br)cc4)CC3)cc2)C1=O`, the values for the pIC50 in test [1] and in test [2] were 6.31 and 4.68, respectively.
As for `CCC1(CC)C(=O)N(c2ccc(CN(Cc3ccccc3)Cc3ccccc3)cc2)C1=O`, in test [1], the pIC50 (in general, the IC50 on a negative log10 scale, so that one unit is a factor of ten) was 6.82. Also, the pEC50 (as a rule, −log10 of the EC50, conventionally taken in molar units) in test [3] was 6.52.
`CCC1(CC)C(=O)N(c2ccc(CN3CCN(Cc4ccc(Br)cc4)CC3)cc2)C1=O`: the figures for the negative logarithm of the IC50 (pIC50) in test [1] and in test [2] were 5.84 and 5.72, respectively.
Molecule `CCC1(CC)C(=O)N(c2cccc(CN3CCN(c4ccc(Br)cc4)CC3)c2)C1=O` gave a negative logarithm of the IC50 (pIC50) in test [1] of 6.05.
`CCC1(CC)C(=O)N(c2ccc(CN3CCN(c4ccc(OC)cc4)CC3)cc2)C1=O` gave a pIC50 in test [1] of 6.42.
Consider `CCC1(CC)C(=O)N(c2ccc(CN3CCN(c4ccnc5ccc(Br)cc45)CC3)cc2)C1=O`, for which the pIC50 in test [1] is 6.59; in test [2] it was 4.46.
As for `CCC1(CC)C(=O)N(c2ccc(CN3CCN(c4cc(C)nc5ccc(Br)cc45)CC3)cc2)C1=O`, the negative logarithm of the IC50 (pIC50) in test [1] is 6.32.
The same measure, in the same setting: the same measure for `CCC1(CC)C(=O)N(c2ccc(CN3CCN(C(c4ccc(F)cc4)c4ccc(F)cc4)CC3)cc2)C1=O`: 5.59; for `CCC1(CC)C(=O)N(c2cccc(CN3CCN(Cc4ccc(Br)cc4)CC3)c2)C1=O`: 6.00; for `CCC1(CC)C(=O)N(c2ccc(CN3CCc4cc5c(cc4C3)OCO5)cc2)C1=O`: 6.25.
In test [1], `CCC1(CC)C(=O)N(Cc2ccc(C(=O)OCc3ccccc3)cc2)C1=O` showed a negative-log IC50 (pIC50) of 6.80. In addition, the pEC50 in test [3] was 6.66.
On to `CCC1(Cc2ccccc2)C(=O)N(OS(=O)(=O)c2ccc(C)cc2)C1=O`, for which, in the test with HEK293-T-REx, the inhibition entry is “inactive”.
The molecule `CCC1(CC)C(=O)N(c2cccc(CN3CCN(Cc4ccc(OC)cc4)CC3)c2)C1=O` gave a negative logarithm of the IC50 (pIC50) in test [1] of 5.71.
